{"source": "patent US9855204B1", "about": "“Methods and compositions for treating androgenetic alopecia” (priority 2015, dated 2018)", "key": {"[1]": {"test_system": "DHT levels", "details": "1 mg dose taken daily; cited from earlier work"}, "[2]": {"test_system": "male pattern baldness", "details": "cited from earlier work"}, "[3]": {"test_system": "Androgenic Alopecia Females", "experiment": "Androgenic Alopecia Females, Global Photographic Assessment (Omnia System)", "format": "in vivo, human", "details": "2 mg daily, 6 months, 15 treated", "excerpt": "(§1) The description of the experiments and their results are presented in the 4 tables below. In these experiments the subjects self-administered CEP for at least 6 months."}, "[4]": {"test_system": "Androgenetic Alopecia Males", "experiment": "Androgenetic Alopecia Males Arm 1, Global Photographic Assessment (Omnia System)", "format": "in vivo, human", "details": "2 mg once daily, 6 months, 20 treated", "excerpt": "as §1"}, "[5]": {"test_system": "Androgenetic Alopecia Males", "experiment": "Androgenetic Alopecia Males Arm 2, Global Photographic Assessment (Omnia System)", "format": "in vivo, human", "details": "2 mg once every other day, 6 months, 20 treated", "excerpt": "as §1"}, "[6]": {"details": "prior medical use of CEP; cited from earlier work"}, "[7]": {"test_system": "androgenetic alopecia", "experiment": "CEP in subjects with androgenetic alopecia, overall findings of the experiments", "format": "in vivo, human", "details": "inferred from benefit in users who skipped daily doses", "excerpt": "It is effective when dosed once daily or even once every other day, both of which make compliance much easier than dividing the doses into greater frequency. It is effective without regard to consumption following meals.\nas §1\nSome users were not perfectly compliant, sometimes skipping their daily doses. […] The expected effective dose range is from about 0.5 mg per day to about 100 mg per day."}}, "data": [{"compound": "CC(C)(C)NC(=O)[C@H]1CC[C@H]2[C@@H]3CC[C@H]4NC(=O)C=C[C@]4(C)[C@H]3CC[C@]12C", "note": "[finasteride, Finasteride]", "values": [{"measurement": "lowering of DHT levels", "setting": "[1]", "value": "≤ 60", "unit": "%"}, {"measurement": "trial participants with substantial increase in hair growth", "setting": "[2]; clinical trials, men", "value": 65, "unit": "%"}, {"measurement": "men in whom progression of hair loss stopped", "setting": "[2]; men taking the drug during clinical trials", "value": 86, "unit": "%"}, {"measurement": "men experiencing transient sexual side effects including erectile and libido difficulties", "setting": "[2]; men", "value": "Less than 2%"}]}, {"compound": "COc1ccc2cc1Oc1ccc(cc1)C[C@H]1c3c(cc4c(c3Oc3cc5c(cc3OC)CCN(C)[C@@H]5C2)OCO4)CCN1C", "note": "[Cepharanthine]", "values": [{"measurement": "number of subjects with score Greatly decreased", "setting": "[3]", "value": 0}, {"measurement": "number of subjects with score Greatly increased", "setting": "[3]", "value": 1}, {"measurement": "number of subjects with score Moderately decreased", "setting": "[3]", "value": 0}, {"measurement": "number of subjects with score Moderately increased", "setting": "[3]", "value": 2}, {"measurement": "number of subjects with score No change", "setting": "[3]", "value": 3}, {"measurement": "number of subjects with score Slightly decreased", "setting": "[3]", "value": 1}, {"measurement": "number of subjects with score Slightly increased", "setting": "[3]", "value": 8}, {"measurement": "number of subjects with score Greatly decreased", "setting": "[4]", "value": 0}, {"measurement": "number of subjects with score Greatly increased", "setting": "[4]", "value": 1}, {"measurement": "number of subjects with score Moderately decreased", "setting": "[4]", "value": 0}, {"measurement": "number of subjects with score Moderately increased", "setting": "[4]", "value": 7}, {"measurement": "number of subjects with score No change", "setting": "[4]", "value": 3}, {"measurement": "number of subjects with score Slightly decreased", "setting": "[4]", "value": 1}, {"measurement": "number of subjects with score Slightly increased", "setting": "[4]", "value": 8}, {"measurement": "number of subjects with score Greatly decreased", "setting": "[5]", "value": 0}, {"measurement": "number of subjects with score Greatly increased", "setting": "[5]", "value": 0}, {"measurement": "number of subjects with score Moderately decreased", "setting": "[5]", "value": 0}, {"measurement": "number of subjects with score Moderately increased", "setting": "[5]", "value": 5}, {"measurement": "number of subjects with score No change", "setting": "[5]", "value": 4}, {"measurement": "number of subjects with score Slightly decreased", "setting": "[5]", "value": 2}, {"measurement": "number of subjects with score Slightly increased", "setting": "[5]", "value": 9}, {"measurement": "safety issues", "setting": "[6]", "value": "No safety issues have been observed"}, {"measurement": "side effects", "setting": "[6]", "value": "very rarely reported"}, {"measurement": "effective dose", "setting": "[7]", "value": "about 0.5 mg CEP a day"}]}]}
